Assay results taken from patent US10954538B2, “Enzymatic cyclization of homofarnesylic acid” (BASF SE, priority 2016, dated 2021).

Tested on: Zm-SHC-1 (squalene-hopene cyclase, SEQ ID NO: 2)
Test: Activity determination of the recombinant cyclase from E. coli LU15568 (conversion of homofarnesylic acid into sclareolide, GC)
Assay type: biochemical, Zymomonas mobilis
Conditions: E. coli LU15568 homogenate, pH 5.0, 37° C., 24 h, GC analysis
Procedure: Inoculated from a suitable 2 ml preculture, E. coli LU15568 was grown for 16 h at 37° C. in 20 ml LB-Amp/Spec/Cm ([…]), 0.1 mM IPTG, 0.5 g/l rhamnose in 100 ml Erlenmeyer flasks (with baffles), centrifuged at 5000*g/10 min and stored at 4° C. Protein extract was prepared by suspending the cell pellet in 15 ml disruption buffer (0.2 M Tris/HCl, 0.5 M EDTA, pH 8.0), 375 U benzonase (for example Novagen, 25 U/μL), 40 μL PMSF (100 mM, dissolved in i-PropOH), 0.8 g sucrose and approx. 0.5 mg of lysozyme. The reaction mixture was mixed and incubated on ice for 30 min. Thereafter, the mixture was frozen at −20° C.
After the reaction mixture had defrosted, it was made up to approx. 40 ml with distilled water and again incubated on ice for 30 min. […]
The conversion of homofarnesylic acid (1b) into sclareolide (3) can be determined with the following GC system:
• 0 min: 100° C. • 5° C./min to 200° C. • After 5 min: 30° C./min to 320° C. • thereafter constant • Duration of the method: 30 min Injector temperature: 280° C. Retention times (RT): • Homofarnesylic acid: peak 1 at 11.7 min, peak 2 at 12.1 min; • Sclareolide: approx. 13.5 min A calibration series, with the aid of which the concentration of unknown samples was determined, is established using authentic material (Sigma, catalog No.: 358002).

CC(C)=CCC/C(C)=C/CC/C(C)=C/CC(=O)O [Homofarnesylic acid, (3E,7E)-4,8,12-trimethyltrideca-3,7,11-trienoic acid]
conversion rate from the E,E isomer (20 mM homofarnesylic acid (E,E 74.93%)): 82.7%
conversion rate in total (20 mM homofarnesylic acid, sodium citrate buffer): 74.5%
